Measurements from patent publication US11820827B2, “Methods of treating myelodysplastic syndrome and acute myeloid leukemia with nonfucosylated anti-CD70 antibodies” (Seagen Inc., priority 2019, dated 2023).
Several values for one entry are separate records, joined by “and”; a condition that tells them apart may be missing. Identical values can stand only once.

How the values were obtained:
MV4-11 AML xenograft [1] = assay: Tumor growth in the MV4-11 AML xenograft model, SEA-CD70 and azacitidine (Example 10); format: in vivo, SCID mice
MV4-11 AML xenograft [2] = assay: Tumor growth in the MV4-11 AML xenograft model, SEA-CD70, azacitidine, venetoclax (Example 11); format: in vivo, SCID mice; details: antibody 10 mg/kg Q4dx5, azacitidine 2 mg/kg Q1dx5 3 cycles, venetoclax 25 mg/kg oral Q1dx21; comparisons at day 39
Description: Tumor growth was reported as a volume and calculated as an average across animals within each treatment group (FIG. 11A). Immunocompromised SCID mice were implanted with 5×10e6 MV4-11 cells subcutaneously in the flank on day 0. When mean tumor size of 50 mm^3 (measured by using the formula: Volume (mm^3)=0.5*Length*Width^2, where the length is the longer dimension) was reached, mice were randomized into treatment groups of 10 mice per group. Stock concentrations of antibody and chemotherapy were diluted to the appropriate concentration and injected into animals at 10 μl/g of body weight. Tumor length and width, and animal weight were measured two times weekly throughout the study and tumor volume was calculated using the formula above. Animals were followed until tumor volume measured ˜1000 mm^3, at which time the animals were euthanized. Animals were dosed on various schedules based on treatment received; animals receiving antibody were treated with 10 mg/kg of antibody (Q4dx5), azacitidine-treated animals were dosed daily (2 mg/kg) for five consecutive days (Q1dx5) each week, for a total of 3 cycles (3 weeks); venetoclax was given at 25 mg/kg every day by oral gavage for 21 days consecutively (Q1dx21). Animal receiving combination of treatments received each treatment at the same dose and schedule as the single treatments.

[3] = test system: MV-411 acute myeloid leukemia model; assay: Tumor growth in the MV-411 acute myeloid leukemia xenograft model (Example 7); format: in vivo, SCID mice
[4] = test system: NOMO-1 CD70+ target cells; assay: ADCP with monocyte-derived macrophages, NOMO-1; format: cell-based, human; details: flow cytometry, antibody dose-dependent
Procedure: (§1) Phagocytosis of fluorescently labeled target cells was determined by flow cytometry. Phagocytosis was measured for the appearance of double-labeled coincident events (fluorescent target cells) and anti-CD11c positivity to identify monocyte/macrophages.
(§2) The following protocol was used to assess […] activity on AML cell lines: • 1. Target cells were labeled using the PKH26 Red Fluorescent Cell Linker Mini Kit (Sigma Aldrich) and following the manufacturer's instructions. • 2. Cells (4000 cells/well) were incubated with the indicated test articles for 30 minutes, washed and resuspended in RPMI plus 10% ultra-low IgG FBS. • 3. PBMC-derived macrophages (100,000 cells/well), generated by incubating PBMC-derived monocytes with 500 U/mL (50 ng/mL) GM-CSF for 10-12 days, were added to the target cells and incubated at 37° C. for 2 hours. • 4. Plates were centrifuged and cells resuspended in 100 μl of APC-CD11 antibody (macrophage marker) and incubated on ice for 30 minutes. • 5. Cells were washed, resuspended in PBS and analyzed by flow cytometry to determine the percentage of phagocytosis

[5] = test system: NOMO-1 CD70+ AML cell line; assay: CDC with normal human serum, NOMO-1; format: cell-based; details: normal human serum not heat inactivated
Procedure: (§3) AML cell lines positive for CD70 were fluorescently labeled and treated with increasing concentrations of CD70 directed antibodies. Cells were then exposed to human compliment and lysis determined as release of fluorescent dye.
(§4) The following protocol was used to assess CDC activity on AML cell lines: • 1. Cells were incubated with […] anti-CRP monoclonal antibodies mix (anti-hCD46, anti-hCD55, anti-hCD59) for 30 minutes on ice. • 2. Cells were washed and plated (200,000 cells/well) in media containing non-heat-inactivated serum, Sytox Green (Life technology), and antibodies, which were added at the indicated final concentration, for 2 hours at 37° C. • 3. Cell dead was quantified by detecting Sitox Green fluorescent signal on an Envison plate reader (Perkin Elmer) and normalized over positive control (1% Triton X-100 treated cells).

[6] = test system: T regulatory cells (Treg) in PBMCs; assay: Treg depletion in PBMCs; format: cell-based, human; details: 24 hours
Procedure: (§5) At the end of the experiment cells were stained with Zombie Aqua Viability Dye and total viable Treg naïve and memory CD4 and CD8 T cell numbers were assessed. […] Fucosylated (WT Clone 13 IgG1) and nonfucosylated (SEA Clone 13 IgG1) antibodies targeting TIGIT were used as positive controls (FIG. 4E-4H).

CD8 T cells in PBMCs = assay: CD8 T cell depletion in PBMCs; format: cell-based, human; details: 24 hours
Procedure: as §5

[7] = test system: MOLM-13 CD70+ AML cell line; assay: CDC with normal human serum, MOLM-13; format: cell-based; details: normal human serum not heat inactivated
Procedure: as §3, §4

[8] = test system: MOLM-13 CD70+ target cells; assay: ADCP with monocyte-derived macrophages, MOLM-13; format: cell-based, human; details: flow cytometry, antibody dose-dependent
Procedure: as §1, §2

hFcγRIIIa V158 = molecular target: T1, hFcγRIIIa V158 (Homo sapiens, UniProt P08637, F176V); assay: BLI binding kinetics to high affinity FcγRIIIa (158V) receptor variant; details: 1:1 Langmuir global fit
T1 construct: made in house
T1 sequence (P08637 17-208 F176V): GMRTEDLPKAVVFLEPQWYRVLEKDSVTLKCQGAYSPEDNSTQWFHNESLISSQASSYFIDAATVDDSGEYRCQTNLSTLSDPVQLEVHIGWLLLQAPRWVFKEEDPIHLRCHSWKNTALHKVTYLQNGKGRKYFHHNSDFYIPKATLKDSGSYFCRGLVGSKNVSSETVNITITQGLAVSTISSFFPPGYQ

[9] = antibody 10 mg/kg Q4dx5, azacitidine 2 mg/kg Q1dx5 for 3 cycles

## Nc1ncn([C@@H]2O[C@H](CO)[C@@H](O)[C@H]2O)c(=O)n1 [azacitidine]
MV4-11 AML xenograft [1]; [9]
  effect on tumor growth: reduce tumor growth
MV4-11 AML xenograft [1]; antibody 10 mg/kg Q4dx5, azacitidine 2 mg/kg Q1dx5 for 3 cycles, intraperitoneally, untreated 17.82 days
  average time for tumors to reach a 10× fold change: 26.59 days
MV4-11 AML xenograft [1]; from time to 10× fold change compared to untreated control
  delay in tumor growth: 33%
MV4-11 AML xenograft [2]
  effect on tumor growth: delay tumor growth
[3]; Vidaza 5 mg/kg Q4dx4, day 9 post implant
  tumor volume, individual animals: 45.0 mm^3 and 50.0 mm^3 and 49.9 mm^3 and 57.6 mm^3 and 59.5 mm^3 and 55.2 mm^3
[3]; Vidaza 5 mg/kg Q4dx4, day 13 post implant
  tumor volume, individual animals: 47.9 mm^3 and 47.5 mm^3 and 73.3 mm^3 and 50.9 mm^3 and 84.1 mm^3 and 65.6 mm^3
[3]; Vidaza 5 mg/kg Q4dx4, day 16 post implant
  tumor volume, individual animals: 35.9 mm^3 and 42.5 mm^3 and 48.9 mm^3 and 47.2 mm^3 and 99.2 mm^3 and 70.8 mm^3
[3]; Vidaza 5 mg/kg Q4dx4, day 20 post implant
  tumor volume, individual animals: 45.2 mm^3 and 47.1 mm^3 and 86.6 mm^3 and 69.9 mm^3 and 162.6 mm^3 and 63.4 mm^3
[3]; Vidaza 5 mg/kg Q4dx4, day 24 post implant
  tumor volume, individual animals: 74.2 mm^3 and 66.4 mm^3 and 136.7 mm^3 and 125.0 mm^3 and 301.0 mm^3 and 92.0 mm^3
[3]; Vidaza 5 mg/kg Q4dx4, day 27 post implant
  tumor volume, individual animals: 141.5 mm^3 and 129.0 mm^3 and 344.5 mm^3 and 295.9 mm^3 and 465.4 mm^3 and 202.5 mm^3
[3]; Vidaza 5 mg/kg Q4dx4, day 30 post implant
  tumor volume, individual animals: 161.8 mm^3 and 130.7 mm^3 and 469.6 mm^3 and 379.5 mm^3 and 778.9 mm^3 and 279.0 mm^3
[3]; Vidaza 5 mg/kg Q4dx4, day 34 post implant
  tumor volume, individual animals: 303.9 mm^3 and 260.2 mm^3 and 649.8 mm^3 and 640.9 mm^3 and 1238.8 mm^3 and 451.9 mm^3
[3]; Vidaza 5 mg/kg Q4dx4, day 38 post implant
  tumor volume, individual animals: 568.7 mm^3 and 452.8 mm^3 and 1164.6 mm^3 and 993.8 mm^3 and 740.5 mm^3
[3]; Vidaza 5 mg/kg Q4dx4, day 41 post implant
  tumor volume, individual animals: 978.2 mm^3 and 688.1 mm^3 and 1063.7 mm^3
[3]; from time to 10× fold change versus untreated, h1F6SEA 10 mg/kg, azacitidine 5 mg/kg
  delay in tumor growth: 20.5%
[3]; h1F6SEA 10 mg/kg, azacitidine 5 mg/kg, Q4dx4 intraperitoneally, untreated 26.8 days
  average time for tumors to reach a 10× fold change: 33.68 days

## h1F6G1V1: antibody comprising the same CDRs as SEA-CD70, but inactivating backbone mutations (E233P, L234V, L235A) reducing Fcgamma receptor binding
MV4-11 AML xenograft [1]; [9]
  effect on tumor growth: not effective in reducing tumor growth
[3]; h1F6G1V1 20 mg/kg Q4dx4, day 9 post implant, 20 mg/kg
  tumor volume, individual animals: 48.0 mm^3 and 62.8 mm^3 and 51.3 mm^3 and 49.1 mm^3 and 52.1 mm^3 and 58.2 mm^3
[3]; h1F6G1V1 20 mg/kg Q4dx4, day 13 post implant, 20 mg/kg
  tumor volume, individual animals: 46.1 mm^3 and 64.4 mm^3 and 65.7 mm^3 and 61.5 mm^3 and 56.8 mm^3 and 65.4 mm^3
[3]; h1F6G1V1 20 mg/kg Q4dx4, day 16 post implant, 20 mg/kg
  tumor volume, individual animals: 59.3 mm^3 and 109.1 mm^3 and 97.7 mm^3 and 68.1 mm^3 and 64.7 mm^3 and 103.8 mm^3
[3]; h1F6G1V1 20 mg/kg Q4dx4, day 20 post implant, 20 mg/kg
  tumor volume, individual animals: 91.5 mm^3 and 234.8 mm^3 and 241.3 mm^3 and 80.6 mm^3 and 104.4 mm^3 and 127.2 mm^3
[3]; h1F6G1V1 20 mg/kg Q4dx4, day 24 post implant, 20 mg/kg
  tumor volume, individual animals: 188.7 mm^3 and 449.2 mm^3 and 338.1 mm^3 and 96.3 mm^3 and 198.9 mm^3 and 274.9 mm^3
[3]; h1F6G1V1 20 mg/kg Q4dx4, day 27 post implant, 20 mg/kg
  tumor volume, individual animals: 306.6 mm^3 and 606.7 mm^3 and 567.6 mm^3 and 213.6 mm^3 and 325.4 mm^3 and 433.0 mm^3
[3]; h1F6G1V1 20 mg/kg Q4dx4, day 30 post implant, 20 mg/kg
  tumor volume, individual animals: 474.6 mm^3 and 1156.6 mm^3 and 1039.1 mm^3 and 325.4 mm^3 and 470.6 mm^3 and 847.7 mm^3
[3]; h1F6G1V1 20 mg/kg Q4dx4, day 34 post implant, 20 mg/kg
  tumor volume, individual animals: 782.9 mm^3 and 709.0 mm^3 and 1001.0 mm^3 and 1081.8 mm^3
[3]; h1F6G1V1 20 mg/kg Q4dx4, day 38 post implant, 20 mg/kg
  tumor volume, individual animals: 1269.5 mm^3 and 1330.9 mm^3

B1: SGN-70: fucosylated parent anti-CD70 antibody (h1F6) of SEA-CD70 (antibody, chains of the INN, looked up, V domains shown)
VH: QVQLVQSGAEVKKPGASVKVSCKASGYTFTNYGMNWVRQAPGQGLKWMGWINTYTGEPTYADAFKGRVTMTRDTSISTAYMELSRLRSDDTAVYYCARDYGDYGMDYWGQGTTVTVSS
VL: DIVMTQSPDSLAVSLGERATINCRASKSVSTSGYSFMHWYQQKPGQPPKLLIYLASNLESGVPDRFSGSGSGTDFTLTISSLQAEDVAVYYCQHSREVPWTFGQGTKVEIK
[4]
  phagocytosis of antibody-coated target cells by macrophages: readily phagocytosed target cells
[5]
  cell lysis by complement fixation: lysed in an antibody-specific, dose-dependent manner
[6]; donor homozygous for high affinity FcγRIIIa (V/V 158)
  T regulatory cell depletion: resulted in T regulatory cell depletion
[6]; donor homozygous for low affinity FcγRIIIa (F/F 158)
  T regulatory cell depletion: Neither CD70 targeting antibody induced T regulatory cell depletion
CD8 T cells in PBMCs; V/V high affinity donor
  CD8+ cell depletion: Neither fucosylated nor nonfucosylated anti-CD70 antibodies depleted CD8+ cells
CD8 T cells in PBMCs; low affinity (F/F 158) donor
  CD8+ cell depletion: Neither fucosylated nor nonfucosylated anti-CD70 antibodies depleted CD8+ cells
[7]
  cell lysis by complement fixation: lysed in an antibody-specific, dose-dependent manner
[8]
  phagocytosis of antibody-coated target cells by macrophages: readily phagocytosed target cells
hFcγRIIIa V158
  Kd: 860 nM
